Experimental data from article PMC6522941, “Design, synthesis, and anticancer evaluation of novel quinoline derivatives of ursolic acid with hydrazide, oxadiazole, and thiadiazole moieties as potent MEK inhibitors” (Journal of Enzyme Inhibition and Medicinal Chemistry, 2019).

Tests used:
[1] = test system: HeLa cells; experiment: MTT cytotoxic assay, HeLa; format: cell-based; conditions: Homo sapiens, 72 h
Experimental: (§1) Human breast cancer cell line (MDA-MB-231), cervical carcinoma cell line (HeLa), the liver cancer cell line (SMMC-7721) and normal hepatocyte cell line (QSG-7701) were maintained in Dulbecco Modified Eagle Medium (DMEM) containing 4.0 mM L-Glutamine and 4500 mg/L Glucose supplemented with 10% (v/v) foetal bovine serum (FBS) and 100 U/mL penicillin/streptomycin at 37 °C in humidified atmosphere of 5% CO2 and 95% air.
(§2) Exponentially growing MDA-MB-231, Hela and SMMC-7721 cell lines were seeded into 96-well plate for 100 μL and treated with different concentrations of the synthetic compounds for 72 h, and then 10 μL of MTT (10 mg/mL) was added and incubation for 3 ∼ 4 h at 37 °C. The generated purple formazan crystals from viable can be dissolved by adding 100 μL DMSO. The plates were swirled gently for 5 min and quantified by measuring the OD of the plates at the wavelength of 540 nm. Each concentration was repeated in three wells and the same experimental condition was provided for all compounds. The results were expressed as IC50 values with standard deviations, which was defined as the concentration at which 50% survival of cells was discerned. Etoposide was co-assayed as positive control.
(§3) The in vitro cytotoxic activity of derivatives 3a–d, 4a–h, 5a–h, and 6a–h were evaluated by MTT assay against human breast cancer cell line (MDA-MB-231), cervical carcinoma cell line (HeLa), hepatocarcinoma cell line (SMMC-7721) and human normal hepatocyte cell line (QSG-7701). The anticancer drug etoposide was co-assayed as the positive control. All tested compounds were dissolved in DMSO and the stock solutions were diluted by DMEM medium before treatment of the cultured cells.

[2] = test system: HeLa cells; experiment: Cell cycle analysis (PI staining, flow cytometry); format: cell-based, human; conditions: 0.2 μM, 48 h
Experimental: Cell cycle distributions in HeLa cells were determined through PI staining and analysed by flow cytometry. HeLa cells were seeded into a six-well plate at 5 × 10^5 cell/mL and treated with different concentrations of compound 4d for 48 h. After treatment, cells were detached with 0.25% trypsin, harvested by centrifugation, washed twice with ice-cold PBS and then fixed and permeabilised with ice-cold 70% ethanol at 4 °C overnight. Ethanol was removed and the cells were washed twice with ice-cold PBS. After this, the cells were treated with 100 μL of RNase (100 μg/mL) at 37 °C for 30 min, followed by incubation with 400 μL of DNA staining solution propidium iodide (PI) (1 mg/mL) in the dark at 4 °C for 30 min. The samples were analysed by a flow cytometer (Becton-Dickinson FACSCalibur, Totowa, NJ, USA) and data were analysed using the FlowJo software (Becton-Dickinson & Co, Totowa, NJ, USA).
Cell cycle distribution in HeLa cells was examined to determine whether or not compound 4d inhibited the proliferation of these cells through cell cycle arrest. HeLa cells were treated with different concentrations of compound 4d (0, 0.05, 0.1, and 0.2 μM) for 48 h. Cell cycle distribution was investigated by flow cytometric analysis after staining the DNA of the treated cells by PI. […] This phenomenon was accompanied by a decrease in the population of cells in G2/M phase.

[3] = test system: HeLa cells; experiment: JC-1 mitochondrial membrane potential assay; format: cell-based, human; conditions: 24 h, control 7.59
Experimental: The JC-1 mitochondrial membrane potential assay kit (Keygene Biotech., Nanjing, China) was employed to measure mitochondrial depolarisation in HeLa cells. Briefly, cells cultured in six-well plates after indicated treatments by compound 4d were incubated with an equal volume of JC-1 staining solution (5 μg/mL) at 37 °C for 20 min and rinsed twice with PBS. Mitochondrial membrane potentials were monitored by determining the relative amounts of dual emissions from mitochondrial JC-1 monomers or aggregates using flow cytometry (Becton-Dickinson FACSCalibur, New York, NY, USA). Mitochondrial membrane depolarisation is indicated by an increase in the percentage of cells with low ΔΨm (green fluorescence and lower right quadrant) compared with cells with high ΔΨm (red fluorescence and upper right quadrant).
As a kind of important organelle, Mitochondria play indispensable roles not only on supplying metabolic energy in the form of ATP, but also on regulating the signal transmission during the apoptosis of cancer cells. In addition, the mitochondrial dysfunction can be aroused under high ROS exposure, leading to the collapse of mitochondrial membrane potential (ΔΨm), which is a characteristic phenomenon of early apoptosis. Loss of ΔΨm can be detected using the fluorescent cationic dye JC-1, which spontaneously forms red fluorescent dimers (J aggregates) under high ΔΨm, whereas its monomeric form showing green fluorescence is prevalent in cells with low ΔΨm. Green and red fluorescence can be observed at 527 and 590 nm, respectively. Thus, changes in the green/red fluorescence ratio reflect the variation in ΔΨm, which can be quantitatively analysed by flow cytometry.

[4] = test system: MDA-MB-231 cells; experiment: MTT cytotoxic assay, MDA-MB-231; format: cell-based, human; conditions: Homo sapiens, MDA-MB-231, 72 h
Experimental: as §1, §2, §3

[5] = target: T1, MEK1 (Homo sapiens, UniProt Q02750); experiment: In vitro MEK1 kinase assay (ADP-Glo); format: biochemical; conditions: recombinant GST-MEK1, GST-ERK2 (inactive) substrate, 10 μM ATP
T1 construct: purchased Carna Biosciences, Kobe, Japan
T1 sequence (Q02750 whole entry): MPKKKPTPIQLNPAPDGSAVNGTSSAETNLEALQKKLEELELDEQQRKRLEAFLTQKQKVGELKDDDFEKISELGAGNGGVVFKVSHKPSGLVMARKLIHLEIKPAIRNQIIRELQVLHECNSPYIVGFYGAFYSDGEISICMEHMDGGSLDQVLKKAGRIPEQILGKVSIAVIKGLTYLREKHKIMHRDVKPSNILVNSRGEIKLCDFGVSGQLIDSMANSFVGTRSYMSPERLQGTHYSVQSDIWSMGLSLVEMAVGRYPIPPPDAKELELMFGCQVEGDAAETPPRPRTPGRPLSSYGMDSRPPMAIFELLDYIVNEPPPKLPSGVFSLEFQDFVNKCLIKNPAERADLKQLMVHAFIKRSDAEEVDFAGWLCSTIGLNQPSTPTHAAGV
Experimental: An in vitro kinase assay of MEK1 was performed using ADP-Glo kinase assay (Promega, Madison, WI, USA) according to the manufacturer’s protocol. […] Reactions were stopped by adding 5 μL of ADP-Glo reagent to each well. After incubating at 22 °C for 40 min, 10 μL of the kinase detection reagent was added and the plates were incubated for another 30 min at 22 °C in the dark. The reaction mixture was analysed by EnSpire (PerkinElmer, Waltham, MA, USA).
The Raf/MEK/ERK pathway is the downstream of Ras activation, and the abnormal expression or phosphorylation of the associated proteins is essential for cancer cell proliferation. In this pathway, MEK kinase is an important anticancer target because of its key roles in regulating the cancer cell apoptosis and oncogenic transformation[51]^,[52]. Among MEK proteins, MEK1 and MEK2 are known as substrate-specific kinases which phosphorylate their downstream kinase ERK1/2.

[6] = test system: SMMC-7721 cells; experiment: MTT cytotoxic assay, SMMC-7721; format: cell-based; conditions: Homo sapiens, 72 h
Experimental: as §1, §2, §3

Question: For `CC(=O)NNC(=O)C12CCC(C)C(C)C1C1=CCC3C4(C)Cc5cc6cc(Cl)ccc6nc5C(C)(C)C4CCC3(C)C1(C)CC2` (stereo not drawn) [Compound 4d, N-[5′-chloro-ursa-12-en-(2,3)-quinoline-28-oyl]-acetohydrazide], which IC50 [1] is on record?
Answer: Its IC50 is 0.08 ± 0.01 µM.

Question: And the “population of cells in G2/M phase” value ([2]; control 25.95)?
Answer: The value was 8.51%.

Question: And the “population of cells in G0/G1 phase” value ([2]; control 48.32)?
Answer: The value was 63.75%.

Question: And the “Cells with low ΔΨm (green fluorescence, lower right quadrant)” value ([3]; 0.05 μM)?
Answer: Its value is 36.33%.

Question: What about the “Cells with low ΔΨm (green fluorescence, lower right quadrant)” value ([3]; 0.1 μM) of the same compound?
Answer: The value was 54.08%.

Question: What about the “Cells with low ΔΨm (green fluorescence, lower right quadrant)” value ([3]; 0.2 μM) of the same compound?
Answer: Its value is 70.83%.

Question: And the IC50 [4]?
Answer: The IC50 was 0.12 ± 0.01 µM.

Question: What about the IC50 [5] of the same compound?
Answer: Its IC50 is 64 nM.

Question: What about the IC50 [6] of the same compound?
Answer: Its IC50 is 0.34 ± 0.03 µM.
